# Assay results as given in paper PMC7156458, “Synthetic biology based construction of biological activity-related library of fungal decalin-containing diterpenoid pyrones” (Nature Communications, 2020).
# Molecular target: Aβ42 (Homo sapiens, UniProt P05067)
# Assay: Th-T (thioflavin-T) assay of Aβ42 aggregation
# Format: biochemical
# Conditions: for Th-T fluorescence of Aβ42 with compound, mean of three wells (Fig. 7a source data): concentration 50, unit not given
# Sequence of Aβ42 (P05067 672-713): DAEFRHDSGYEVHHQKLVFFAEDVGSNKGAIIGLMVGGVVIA
smiles,measurement,setting,value
C=C1CCC2C(C)(CCC=C(C)C)C(O)CCC2(C)C1Cc1c(OC)oc(C)c(C(=O)OC)c1=O (stereo not drawn) [Compound 14],"Th-T fluorescence of Aβ42 with compound, mean of three wells (Fig. 7a source data)",time-course reading M143,0.7264
same,"Th-T fluorescence of Aβ42 with compound, mean of three wells (Fig. 7a source data)",time-course reading M144,0.7091
same,"Th-T fluorescence of Aβ42 with compound, mean of three wells (Fig. 7a source data)",time-course reading M145,0.7134
same,"Th-T fluorescence of Aβ42 (sheet Fig. 7a), mean of three wells","head suffix _10 (concentration 10), reading M63",2.709
same,"Th-T fluorescence of Aβ42 (sheet Fig. 7a), mean of three wells","head suffix _10 (concentration 10), reading M64",2.685
same,"Th-T fluorescence of Aβ42 (sheet Fig. 7a), mean of three wells","head suffix _10 (concentration 10), reading M65",2.69
same,"Th-T fluorescence of Aβ42 (sheet Fig. 7a), mean of three wells","head suffix _10 (concentration 10), reading M66",2.693
same,"Th-T fluorescence of Aβ42 (sheet Fig. 7a), mean of three wells","head suffix _10 (concentration 10), reading M67",2.707
same,"Th-T fluorescence of Aβ42 (sheet Fig. 7a), mean of three wells","head suffix _10 (concentration 10), reading M68",2.71
same,"Th-T fluorescence of Aβ42 (sheet Fig. 7a), mean of three wells","head suffix _10 (concentration 10), reading M69",2.6808
same,"Th-T fluorescence of Aβ42 (sheet Fig. 7a), mean of three wells","head suffix _10 (concentration 10), reading M70",2.69
same,"Th-T fluorescence of Aβ42 (sheet Fig. 7a), mean of three wells","head suffix _10 (concentration 10), reading M71",2.719
same,"Th-T fluorescence of Aβ42 (sheet Fig. 7a), mean of three wells","head suffix _10 (concentration 10), reading M72",2.755
same,"Th-T fluorescence of Aβ42 (sheet Fig. 7a), mean of three wells","head suffix _10 (concentration 10), reading M73",2.763
same,"Th-T fluorescence of Aβ42 (sheet Fig. 7a), mean of three wells","head suffix _10 (concentration 10), reading M74",2.748
same,"Th-T fluorescence of Aβ42 (sheet Fig. 7a), mean of three wells","head suffix _10 (concentration 10), reading M75",2.779
same,"Th-T fluorescence of Aβ42 (sheet Fig. 7a), mean of three wells","head suffix _10 (concentration 10), reading M76",2.777
same,"Th-T fluorescence of Aβ42 (sheet Fig. 7a), mean of three wells","head suffix _10 (concentration 10), reading M77",2.827
same,"Th-T fluorescence of Aβ42 (sheet Fig. 7a), mean of three wells","head suffix _10 (concentration 10), reading M78",2.836
same,"Th-T fluorescence of Aβ42 (sheet Fig. 7a), mean of three wells","head suffix _10 (concentration 10), reading M79",2.796
same,"Th-T fluorescence of Aβ42 (sheet Fig. 7a), mean of three wells","head suffix _10 (concentration 10), reading M80",2.789
same,"Th-T fluorescence of Aβ42 (sheet Fig. 7a), mean of three wells","head suffix _10 (concentration 10), reading M81",2.809
same,"Th-T fluorescence of Aβ42 (sheet Fig. 7a), mean of three wells","head suffix _10 (concentration 10), reading M82",2.8409
same,"Th-T fluorescence of Aβ42 (sheet Fig. 7a), mean of three wells","head suffix _10 (concentration 10), reading M83",2.8356
same,"Th-T fluorescence of Aβ42 (sheet Fig. 7a), mean of three wells","head suffix _10 (concentration 10), reading M84",2.801
same,"Th-T fluorescence of Aβ42 (sheet Fig. 7a), mean of three wells","head suffix _20 (concentration 20), reading M63",2.081
same,"Th-T fluorescence of Aβ42 (sheet Fig. 7a), mean of three wells","head suffix _20 (concentration 20), reading M64",2.033
same,"Th-T fluorescence of Aβ42 (sheet Fig. 7a), mean of three wells","head suffix _20 (concentration 20), reading M65",2.056
same,"Th-T fluorescence of Aβ42 (sheet Fig. 7a), mean of three wells","head suffix _20 (concentration 20), reading M66",1.992
same,"Th-T fluorescence of Aβ42 (sheet Fig. 7a), mean of three wells","head suffix _20 (concentration 20), reading M67",2.022
same,"Th-T fluorescence of Aβ42 (sheet Fig. 7a), mean of three wells","head suffix _20 (concentration 20), reading M68",2.054
same,"Th-T fluorescence of Aβ42 (sheet Fig. 7a), mean of three wells","head suffix _20 (concentration 20), reading M69",2.0412
same,"Th-T fluorescence of Aβ42 (sheet Fig. 7a), mean of three wells","head suffix _20 (concentration 20), reading M70",2.012
same,"Th-T fluorescence of Aβ42 (sheet Fig. 7a), mean of three wells","head suffix _20 (concentration 20), reading M71",1.97
same,"Th-T fluorescence of Aβ42 (sheet Fig. 7a), mean of three wells","head suffix _20 (concentration 20), reading M72",1.988
same,"Th-T fluorescence of Aβ42 (sheet Fig. 7a), mean of three wells","head suffix _20 (concentration 20), reading M73",1.972
same,"Th-T fluorescence of Aβ42 (sheet Fig. 7a), mean of three wells","head suffix _20 (concentration 20), reading M74",1.9541
same,"Th-T fluorescence of Aβ42 (sheet Fig. 7a), mean of three wells","head suffix _20 (concentration 20), reading M75",1.951
same,"Th-T fluorescence of Aβ42 (sheet Fig. 7a), mean of three wells","head suffix _20 (concentration 20), reading M76",1.9741
same,"Th-T fluorescence of Aβ42 (sheet Fig. 7a), mean of three wells","head suffix _20 (concentration 20), reading M77",1.953
same,"Th-T fluorescence of Aβ42 (sheet Fig. 7a), mean of three wells","head suffix _20 (concentration 20), reading M78",1.933
same,"Th-T fluorescence of Aβ42 (sheet Fig. 7a), mean of three wells","head suffix _20 (concentration 20), reading M79",1.92
same,"Th-T fluorescence of Aβ42 (sheet Fig. 7a), mean of three wells","head suffix _20 (concentration 20), reading M80",1.931
same,"Th-T fluorescence of Aβ42 (sheet Fig. 7a), mean of three wells","head suffix _20 (concentration 20), reading M81",1.911
same,"Th-T fluorescence of Aβ42 (sheet Fig. 7a), mean of three wells","head suffix _20 (concentration 20), reading M82",1.915
same,"Th-T fluorescence of Aβ42 (sheet Fig. 7a), mean of three wells","head suffix _20 (concentration 20), reading M83",1.888
same,"Th-T fluorescence of Aβ42 (sheet Fig. 7a), mean of three wells","head suffix _20 (concentration 20), reading M84",1.889
same,"Th-T fluorescence of Aβ42 (sheet Fig. 7a), mean of three wells","head suffix _50 (concentration 50), reading M63",3.83
same,"Th-T fluorescence of Aβ42 (sheet Fig. 7a), mean of three wells","head suffix _50 (concentration 50), reading M64",3.705
same,"Th-T fluorescence of Aβ42 (sheet Fig. 7a), mean of three wells","head suffix _50 (concentration 50), reading M65",3.586
same,"Th-T fluorescence of Aβ42 (sheet Fig. 7a), mean of three wells","head suffix _50 (concentration 50), reading M66",3.506
same,"Th-T fluorescence of Aβ42 (sheet Fig. 7a), mean of three wells","head suffix _50 (concentration 50), reading M67",3.421
same,"Th-T fluorescence of Aβ42 (sheet Fig. 7a), mean of three wells","head suffix _50 (concentration 50), reading M68",3.307
same,"Th-T fluorescence of Aβ42 (sheet Fig. 7a), mean of three wells","head suffix _50 (concentration 50), reading M69",3.193
same,"Th-T fluorescence of Aβ42 (sheet Fig. 7a), mean of three wells","head suffix _50 (concentration 50), reading M70",3.0995
same,"Th-T fluorescence of Aβ42 (sheet Fig. 7a), mean of three wells","head suffix _50 (concentration 50), reading M71",3.0146
same,"Th-T fluorescence of Aβ42 (sheet Fig. 7a), mean of three wells","head suffix _50 (concentration 50), reading M72",2.931
